Test results as given in patent publication US11840535B2, “Alkynyl(hetero)aromatic compound for inhibiting protein kinase activity” (Shenzhen TargetRx, Inc., priority 2018, dated 2023).

Experiments:
[1] = tested on: Ba/F3 Bcr-Abl T315I cells; assay: Cell proliferation analysis, Ba/F3 Bcr-Abl T315I; type: cell-based; conditions: for IC50: Mus musculus, BaF3, 72 h, 3 days, CellTiter-Glo; for Selectivity [Ba/F3 (parental/Bcr-Abl ^T315I)]: ratio of Ba/F3 parental to Ba/F3 Bcr-Abl T315I
Method: (§1) The inhibitory effect of the example compounds on Ba/F3, Ba/F3 Bcr-Abl T315I cell activity was determined.
(§2) Materials and reagents: RPMI-1640 medium (GIBCO, Catalog No. A10491-01), fetal bovine serum (GIBCO, Catalog No. 10099141), antibiotics (Penicillin-Streptomycin), IL-3 (PeproTech), promycin; cell lines: Ba/F3, Ba/F3 Bcr-Abl T315I (Purchased from American type culture collection, ATCC), live cell detection kit […] (Promega, Catalog No. G7572), 96-well black wall transparent flat bottom cell culture plate (Corning, Catalog No. 3340).
(§3) Test method: 1. Preparation of cell plate: Ba/F3, Ba/F3 Bcr-Abl T315I cells were respectively seeded in 96-well plates, and 8 ng/ml IL-3 was added to the Ba/F3 cells, and the cell plates were placed in a carbon dioxide incubator and cultured overnight. 2. The test compounds were dissolved in DMSO, 9 compound concentrations were made with a 3.16-fold gradient dilution in triplicate. 3. Treatment of the cells with compounds: The compounds were transferred to the cell plate with a starting concentration of 10 μM. The cell plate was placed in a carbon dioxide incubator for 3 days. 4. Detection: CellTiter-Glo agent was added to the cell plate, and incubated at room temperature for 30 minutes to stabilize the luminous signal. PerkinElmer Envision multi-label analyzer was used for reading, wherein A represents […], B represents IC50 is 10-20 nM, C represents IC50 is 20-50 nM, D represents IC50 is 50-1000 nM, E represents IC50>1000 nM.

ABL = ABL (Homo sapiens (Human), UniProt P00519); assay: Biochemical kinase analysis, ABL
Method: (§4) Reagents and materials: ABL (ThermoFisher, Cat. No PV3585), ABL^T315I (Thermo Fisher, Cat. No. PR7429B), ATP (Sigma, Cat. No. A7699-1G), DMSO (Sigma, Cat. No. D2650), 96-well plate (Corning, Cat. No. 3365), 384-well plate (Greiner, Cat. No. 784076), buffer solution (Thermo Fisher, Cat. No. PR4876B).
(§5) Compound formulation: The test compounds were dissolved in DMSO to prepare a 20 mM stock solution. Before use, the compounds were diluted in DMSO to 0.1 mM, and diluted into 11 concentrations with a 3-fold gradient. When addition, diluentions of 4-fold final concentration were then made with buffer solution.
(§6) Kinase assay method: After preparing the buffer, the enzyme was mixed with pre-formulated and diluted compounds of different concentrations in duplicate for each concentration, and placed at room temperature for 30 minutes. The corresponding substrate and ATP were added thereto, and reacted at room temperature for 60 minutes (both a negative and a positive control were set). After the reaction, antibody was added for detection, Envision detection was carried out after 60 minutes incubation at room temperature, and data was collected. Data analysis and fitting were made according to XLfit5 software, wherein, A represents IC50≤5 nM, B represents IC50 is 5-50 nM, C represents IC50 is 50-100 nM, D represents IC50>100 nM.

ABL^T315I = ABL^T315I (Homo sapiens (Human), UniProt P00519, T315I); assay: Biochemical kinase analysis, ABL T315I
Method: as §4, §5, §6

[2] = Metabolic stability evaluation, human liver microsome assay; type: in vitro ADME; conditions: pH 7.4, human liver microsomes 0.5 mg/mL, compound 1 μM, 37° C.; for microsomal CLint at 1 μM: read-out: HLM Clint; for half-life at 1 μM: read-out: HLM T1/2
Method: Microsome assay: human liver microsomes: 0.5 mg/mL, Xenotech; coenzyme (NADPH/NADH): 1 mM, Sigma Life Science; magnesium chloride: 5 mM, 100 mM phosphate buffer (pH is 7.4).
Preparation of stock solution: Powder of the example compounds and the reference compound were accurately weighed, and dissolved to 5 mM with DMSO, respectively.
Preparation of phosphate buffer (100 mM, pH7.4): Pre-formulated 150 mL 0.5 M potassium dihydrogen phosphate and 700 mL 0.5 M dipotassium hydrogen phosphate were mixed, then the pH of the mixture was adjusted to 7.4 with 0.5 M dipotassium hydrogen phosphate. Before use, 5-fold dilution was made with ultra-pure water, and magnesium chloride was added to afford phosphate buffer (100 mM), which containing 100 mM potassium phosphate, 3.3 mM magnesium chloride, and pH is 7.4.
NADPH regeneration system solution (containing 6.5 mM NADP, 16.5 mM G-6-P, 3 U/mL G-6-P D, 3.3 mM magnesium chloride) was prepared and placed on wet ice before use.
Preparation of stop solution: Acetonitrile solution containing 50 ng/mL propranolol hydrochloride and 200 ng/mL tolbutamide (internal standard). 25057.5 μL phosphate buffer (pH 7.4) was taken into a 50 mL centrifuge tube, and 812.5 μL human liver microsome was added respectively, mixed well to afford liver microsome diluention with a protein concentration of 0.625 mg/mL.
Incubation of the sample: The stock solutions of the corresponding compounds were diluted to 0.25 mM with an aqueous solution containing 70% acetonitrile as working solutions for use. 398 μL of human liver microsome diluention was taken and added to a 96-well incubation plate (N=2), respectively, and 2 μL of 0.25 mM working solutions were then added respectively, and mixed well.
Determination of metabolic stability: 300 μL of pre-chilled stop solution was added to each well of a 96-well deep well plate and the plate was placed on ice as a stop plate. The 96-well incubation plate and NADPH regeneration system were placed in a 37° C. water bath, shook at 100 rpm, and pre-incubated for 5 min. 80 μL of incubation solution was taken from each well of the incubation plate and added to the stop plate, mixed well, and 20 μL of NADPH regeneration system solution was supplemented, the resulted solution was considered as sample at 0 min. Then 80 μL of NADPH regeneration system solution was added to each well of the incubation plate to start the reaction and started timing. The reaction concentration of the corresponding compound is 1 μM, and the protein concentration is 0.5 mg/mL. 100 μL reaction solution was taken at 10, 30, 90 min of reaction, respectively, and added into stop plate, the reaction was stopped with 3 min vortex. The stop plate was centrifuged at 5000×g, 4° C. for 10 min. 100 μL of supernatant was taken to a 96-well plate where 100 μL of distilled water was added in advance, mixed well, sample analysis was carried out by LC-MS/MS.
Data analysis: LC-MS/MS system was used to detect peak area of corresponding compound and internal standard, peak area ratio of compound to internal standard was calculated. The slope was measured by plotting the natural logarithm of the remaining percentage of the compound versus time, and t1/2 and CLint were calculated according to the following formula, wherein V/M means 1/protein concentration.

Ba/F3 parental cells = assay: Cell proliferation analysis, Ba/F3 parental; type: cell-based; conditions: Mus musculus, BaF3, 72 h; 8 ng/ml IL-3, 3 days, CellTiter-Glo
Method: as §1, §2, §3

| Compound | IC50 [1] [nM] | Selectivity [Ba/F3 (parental/Bcr-Abl ^T315I)] [1] | IC50 (ABL) [nM] | IC50 (ABL^T315I) [nM] | microsomal CLint at 1 μM [2] [µL/min/mg] | half-life at 1 μM [2] [h] | IC50 (Ba/F3 parental cells) [nM] |
| --- | --- | --- | --- | --- | --- | --- | --- |
| CCn1cc(C#Cc2cc(NC(=O)c3cccc(C(F)(F)F)c3)ccc2C)c2c(N)ncnc21 [Example 17, N-(3-((4-amino-7-ethyl-7H-pyrrolo[2,3-d]pyrimidin-5-yl)ethynyl)-4-methylphenyl)-3-(trifluoromethyl)benzamide] | 10 to 20 | 50~100 | ≤ 5 | ≤ 5 | 17.2 | 1.34 | > 1000 |
| CCn1cc(C#Cc2cc(NC(=O)c3ccc(CN4CCN(C)CC4)c(C(F)(F)F)c3)ccc2C)c2c(N)ncnc21 [Example 18, N-(3-((4-amino-7-ethyl-7H-pyrrolo[2,3-d]pyrimidin-5-yl)ethynyl)-4-methylphenyl)-4-((4-methylpiperazin-1-yl)methyl)-3-(trifluoromethyl)benzamide] | ≤ 10 | 100~150 | ≤ 5 | ≤ 5 | 17 | 1.36 | > 1000 |
| Cc1ccc(C(=O)Nc2ccc(CN3CCN(C)CC3)c(C(F)(F)F)c2)cc1C#Cc1cn([C@H]2CC[C@H](O)CC2)c2ncnc(N)c12 [Example 22, 3-((4-amino-7-((1r,4r)-4-hydroxycyclohexyl)-7H-pyrrolo[2,3-d]pyrimidin-5-yl)ethynyl)-4-methyl-N-(4-((4-methylpiperazin-1-yl)methyl)-3-(trifluoromethyl)phenyl)benzamide] | 20 to 50 | 0~50 | ≤ 5 | ≤ 5 | 6.1 | 3.8 | > 1000 |
| Cc1ccc(NC(=O)c2ccc(CN3CCN(C)CC3)c(C(F)(F)F)c2)cc1C#Cc1cn([C@H]2CC[C@H](O)CC2)c2ncnc(N)c12 [Example 25, N-(3-((4-amino-7-((1r,4r)-4-hydroxycyclohexyl)-7H-pyrrolo[2,3-d]pyrimidin-5-yl)ethynyl)-4-methylphenyl)-4-((4-methylpiperazin-1-yl)methyl)-3-(trifluoromethyl)benzamide] | 20 to 50 | 0~50 | ≤ 5 | ≤ 5 | 7.6 | 3.03 | > 1000 |
